Where a SMILES comes first, the peptide text is derived from it.

These results are taken from article PMC2248166, “Quantitative peptide binding motifs for 19 human and mouse MHC class I molecules derived using positional scanning combinatorial peptide libraries” (Immunome Research, 2008).

For the assay, the target named is HLA B*0801 (Homo sapiens, UniProt P01889, A93T/A95T/D138N/E176V/E187T/K202T/Q94N/R180D/S35A/V36M/Y33D/Y91F). Briefly: biochemical. Format: binding.

Turning to `CC(C)C[C@H](NC(=O)[C@H](Cc1ccc(O)cc1)NC(=O)[C@@H](NC(=O)[C@H](Cc1ccccc1)NC(=O)[C@H](CCCCN)NC(=O)[C@H](CC(C)C)NC(=O)[C@H](CC(C)C)NC(=O)[C@H](C)NC(=O)[C@@H](N)Cc1ccccc1)[C@@H](C)O)C(=O)O` [3102.0745] (H-FALLKFTYL-OH), inhibition was half-maximal at 1.6 nM (IC50).

In the case of `CC[C@H](C)[C@H](NC(=O)[C@H](CCCCN)NC(=O)[C@H](CC(C)C)NC(=O)[C@@H](NC(=O)[C@H](Cc1c[nH]cn1)NC(=O)[C@H](CCCCN)NC(=O)[C@H](CCCNC(=N)N)NC(=O)[C@H](CC(C)C)NC(=O)[C@@H](N)CC(C)C)[C@@H](C)O)C(=O)O` [3102.0636] (H-LLRKHTLKI-OH), the IC50 – broadly, the point on the concentration scale where inhibition reaches its midpoint – was 21 nM. Against the preceding molecule, the IC50 is about 13-fold higher.

The molecule `CC[C@H](C)[C@H](NC(=O)[C@H](Cc1c[nH]cn1)NC(=O)[C@H](Cc1ccccc1)NC(=O)[C@H](CC(C)C)NC(=O)[C@H](CC(N)=O)NC(=O)[C@@H]1CCCN1C(=O)[C@H](CC(C)C)NC(=O)[C@@H](N)CCCNC(=N)N)C(=O)N[C@@H](CC(C)C)C(=O)O` [3102.0632] (H-RLPNLFHIL-OH) returned an IC50 of 69 nM.

Molecule `CSCC[C@H](NC(=O)[C@H](CCCNC(=N)N)NC(=O)[C@H](Cc1ccccc1)NC(=O)[C@@H]1CCCN1C(=O)[C@H](CCSC)NC(=O)[C@H](CCCCN)NC(=O)[C@H](CC(C)C)NC(=O)[C@@H](N)CC(C)C)C(=O)N[C@H](C(=O)O)C(C)C` [3102.0749] (H-LLKMPFRMV-OH) returned a 50% inhibitory concentration (IC50) of 7.1 nM.

With `CC(C)C[C@H](NC(=O)[C@H](CO)NC(=O)[C@@H](NC(=O)[C@H](CC(C)C)NC(=O)[C@H](CO)NC(=O)[C@H](CCC(N)=O)NC(=O)[C@H](CCCCN)NC(=O)[C@H](CC(N)=O)NC(=O)[C@@H](N)Cc1ccc(O)cc1)C(C)C)C(=O)O` [3102.0646] (H-YNKQSLVSL-OH), the IC50 worked out at 30 nM. This IC50 lies about 4.2-fold higher than the previous one.

`CC[C@H](C)[C@H](NC(=O)[C@H](CO)NC(=O)[C@@H](NC(=O)[C@@H](NC(=O)[C@H](Cc1c[nH]c2ccccc12)NC(=O)[C@H](CCCCN)NC(=O)[C@H](CCSC)NC(=O)[C@@H](N)CCSC)[C@@H](C)CC)[C@@H](C)CC)C(=O)N[C@@H](CC(C)C)C(=O)O` [3102.0616] (H-MMKWIISIL-OH) yielded an IC50 of 1.3 nM.

The molecule `CC[C@H](C)[C@H](NC(=O)[C@@H](N)CC(N)=O)C(=O)N[C@@H](CCSC)C(=O)N1CCC[C@H]1C(=O)N[C@@H](CC(C)C)C(=O)N[C@@H](Cc1ccccc1)C(=O)N1CCC[C@H]1C(=O)N[C@H](C(=O)N[C@@H](Cc1ccccc1)C(=O)O)[C@@H](C)O` [3102.0648] (H-NIMPLFPTF-OH) had an IC50 of 48 nM.

Regarding `CC[C@H](C)[C@H](NC(=O)[C@H](CC(C)C)NC(=O)[C@H](CCSC)NC(=O)[C@H](CCCNC(=N)N)NC(=O)[C@@H](NC(=O)[C@H](Cc1ccccc1)NC(=O)[C@@H](NC(=O)[C@@H](N)CO)[C@@H](C)CC)[C@@H](C)CC)C(=O)N[C@@H](CC(C)C)C(=O)O` [3102.0701] (H-SIFIRMLIL-OH), the midpoint of inhibition, the IC50, lay at 10 nM.

Take `CC(C)C[C@H](NC(=O)[C@@H](N)CCC(=O)O)C(=O)N[C@@H](CCCCN)C(=O)N[C@@H](CCC(=O)O)C(=O)N[C@@H](CCCCN)C(=O)N[C@@H](CO)C(=O)N[C@H](C(=O)N[C@@H](CCCCN)C(=O)N[C@@H](Cc1ccccc1)C(=O)O)C(C)C` [3102.0712] (H-ELKEKSVKF-OH): the IC50 turned out to be 3.2 nM.

For `CC[C@H](C)[C@H](NC(=O)[C@@H](NC(=O)[C@H](CS)NC(=O)[C@@H](NC(=O)[C@H](CCCNC(=N)N)NC(=O)[C@H](CO)NC(=O)[C@H](CCCCN)NC(=O)[C@H](CO)NC(=O)[C@@H](N)CC(N)=O)[C@@H](C)CC)C(C)C)C(=O)O` [3102.0966] (H-NSKSRICVI-OH), the IC50 is 11 nM.

For the molecule `CC(C)C[C@H](NC(=O)[C@H](CC(N)=O)NC(=O)[C@H](Cc1ccc(O)cc1)NC(=O)[C@H](Cc1ccccc1)NC(=O)[C@H](Cc1c[nH]cn1)NC(=O)[C@H](CC(=O)O)NC(=O)[C@H](CCCNC(=N)N)NC(=O)[C@H](CC(C)C)NC(=O)[C@@H](N)Cc1ccc(O)cc1)C(=O)O` [3102.0548] (H-YLRDHFYNL-OH), the IC50 is 8.3 nM. The IC50 values of the last two molecules are within 1.5-fold of each other.
